Experimental data taken from ChEMBL document CHEMBL3137667, “[Drug-induced liver injury; fourteenth updated edition of the bibliographic database of liver injuries and related drugs]” (Gastroenterol Clin Biol, 2004).

Columns and labels:
[1] = Highest frequency of moderate liver toxicity observed during clinical trials, expressed as a percentage. [column '% BIOL' in source]; settings: human
[2] = Highest frequency of acute liver toxicity observed during clinical trials, expressed as a percentage. [column '% AIGUE' in source]; settings: human
[3] = Times to onset, minimal and maximal, observed in the indexed observations. [column 'DELAI' in source]; settings: human
[4] = human, serum
[5] = human, serum; remark: listed apart in the source
[6] = human
[7] = human; remark: listed apart in the source
[8] = human; remark: listed apart in the source
[9] = human, serum, 4383 h
[10] = human; remark: listed apart in the source
[11] = human; remark: listed apart in the source
[12] = human; remark: listed apart in the source
[13] = human; remark: listed apart in the source
[14] = human; remark: listed apart in the source
[15] = human; remark: listed apart in the source
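For Hepatotoxicity (association with vascular disease) in this document: count of indexed literature references reporting vascular liver injury in humans, e.g. peliosis hepatitis, hepatic veno-occlusive disease or Budd-Chiari syndrome.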
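For Hepatotoxicity (benign tumour) in this document: value is a count of indexed literature references citing a benign tumour confirmed by histopathology.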
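For Hepatotoxicity (choleostasis) in this document: human cholestatic liver injury, shown by histopathology or by peak ALT or AST elevation over alkaline phosphatase ratio below 2, value counts indexed literature reports.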
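For Hepatotoxicity (chronic liver disease) in this document: chronic liver injury confirmed by histopathology or persistently raised serum aminotransferase activity beyond 6 months, value given as the count of indexed literature references.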
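For Hepatotoxicity (cirrhosis) in this document: value is a count of indexed literature references reporting cirrhosis confirmed by histopathology.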
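For Hepatotoxicity (cytolytic) in this document: human cytolytic liver injury, shown by histopathology or by a ratio above 5 of peak ALT or AST elevation to alkaline phosphatase elevation, value counts indexed references.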
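For Hepatotoxicity (granulomatous hepatitis) in this document: value is a count of indexed literature references reporting granulomatous liver disease confirmed by histopathology.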
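For Hepatotoxicity (malignant tumour) in this document: malignant tumour confirmed by histopathology, value gives the count of indexed literature references reporting it.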
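For Hepatotoxicity (severe hepatitis) in this document: human clinical data: severe hepatitis, meaning potentially life-threatening liver failure or clinically observed cases, the value counts how many indexed literature references report it.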
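For Hepatotoxicity (steatosis) in this document: steatosis confirmed by histopathology, value is the count of indexed references.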

Molecule: SPIRAMYCIN
- Hepatotoxicity (moderate) [1]: 0%
- Hepatotoxicity (acute) [2]: 0%
- Hepatotoxicity (time to onset) [3]: 1 day - 4 weeks
- Hepatotoxicity (moderate) [4]: 0
- Hepatotoxicity (acute) [5]: 4
- Hepatotoxicity (cytolytic) [6]: 0
- Hepatotoxicity (choleostasis) [7]: 3
- Hepatotoxicity (severe hepatitis) [8]: 0
- Hepatotoxicity (chronic liver disease) [9]: 0
- Hepatotoxicity (cirrhosis) [10]: 0
- Hepatotoxicity (granulomatous hepatitis) [11]: 0
- Hepatotoxicity (association with vascular disease) [12]: 0
- Hepatotoxicity (steatosis) [13]: 0
- Hepatotoxicity (malignant tumour) [14]: 0
- Hepatotoxicity (benign tumour) [15]: 0

Molecule: SERRAPEPTASE
- Hepatotoxicity (moderate) [1]: 0%
- Hepatotoxicity (acute) [2]: 0%
- Hepatotoxicity (time to onset) [3]: 2 days
- Hepatotoxicity (moderate) [4]: 0
- Hepatotoxicity (acute) [5]: 1
- Hepatotoxicity (cytolytic) [6]: 0
- Hepatotoxicity (choleostasis) [7]: 0
- Hepatotoxicity (severe hepatitis) [8]: 0
- Hepatotoxicity (chronic liver disease) [9]: 0
- Hepatotoxicity (cirrhosis) [10]: 0
- Hepatotoxicity (granulomatous hepatitis) [11]: 1
- Hepatotoxicity (association with vascular disease) [12]: 0
- Hepatotoxicity (steatosis) [13]: 0
- Hepatotoxicity (malignant tumour) [14]: 0
- Hepatotoxicity (benign tumour) [15]: 0

Molecule: CN1c2c(oc(=O)n(-c3ccccn3)c2=O)-c2ccccc2S1(=O)=O [DROXICAM]
- Hepatotoxicity (moderate) [1]: 0%
- Hepatotoxicity (acute) [2]: > 0%
- Hepatotoxicity (time to onset) [3]: 10 days - 7 weeks
- Hepatotoxicity (moderate) [4]: 0
- Hepatotoxicity (acute) [5]: 7
- Hepatotoxicity (cytolytic) [6]: 4
- Hepatotoxicity (choleostasis) [7]: 6
- Hepatotoxicity (severe hepatitis) [8]: 0
- Hepatotoxicity (chronic liver disease) [9]: 0
- Hepatotoxicity (cirrhosis) [10]: 0
- Hepatotoxicity (granulomatous hepatitis) [11]: 1
- Hepatotoxicity (association with vascular disease) [12]: 0
- Hepatotoxicity (steatosis) [13]: 0
- Hepatotoxicity (malignant tumour) [14]: 0
- Hepatotoxicity (benign tumour) [15]: 0

Molecule: COc1ccnc(C[S+]([O-])c2nc3ccc(OC(F)F)cc3[nH]2)c1OC (stereo not given) [PANTOPRAZOLE]
- Hepatotoxicity (moderate) [1]: 8.3%
- Hepatotoxicity (acute) [2]: 0%
- Hepatotoxicity (time to onset) [3]: 2 days - 8 days
- Hepatotoxicity (moderate) [4]: 13
- Hepatotoxicity (acute) [5]: 2
- Hepatotoxicity (cytolytic) [6]: 2
- Hepatotoxicity (choleostasis) [7]: 0
- Hepatotoxicity (severe hepatitis) [8]: 1
- Hepatotoxicity (chronic liver disease) [9]: 0
- Hepatotoxicity (cirrhosis) [10]: 0
- Hepatotoxicity (granulomatous hepatitis) [11]: 0
- Hepatotoxicity (association with vascular disease) [12]: 0
- Hepatotoxicity (steatosis) [13]: 0
- Hepatotoxicity (malignant tumour) [14]: 0
- Hepatotoxicity (benign tumour) [15]: 0

Molecule: CC[C@@H](CO)NC(=O)[C@@H]1C=C2c3cccc4c3c(cn4C)C[C@H]2N(C)C1 [METHYSERGIDE]
- Hepatotoxicity (moderate) [1]: 0%
- Hepatotoxicity (acute) [2]: 0%
- Hepatotoxicity (time to onset) [3]: 5 years
- Hepatotoxicity (moderate) [4]: 1
- Hepatotoxicity (acute) [5]: 0
- Hepatotoxicity (cytolytic) [6]: 0
- Hepatotoxicity (choleostasis) [7]: 0
- Hepatotoxicity (severe hepatitis) [8]: 0
- Hepatotoxicity (chronic liver disease) [9]: 0
- Hepatotoxicity (cirrhosis) [10]: 0
- Hepatotoxicity (granulomatous hepatitis) [11]: 0
- Hepatotoxicity (association with vascular disease) [12]: 0
- Hepatotoxicity (steatosis) [13]: 0
- Hepatotoxicity (malignant tumour) [14]: 0
- Hepatotoxicity (benign tumour) [15]: 0

Molecule: COCCOC(=O)C1=C(C)NC(C)=C(C(=O)OC(C)C)C1c1cccc([N+](=O)[O-])c1 (stereo not given) [NIMODIPINE]
- Hepatotoxicity (moderate) [1]: 2.7%
- Hepatotoxicity (acute) [2]: 0.7%
- Hepatotoxicity (time to onset) [3]: 6 months
- Hepatotoxicity (moderate) [4]: 5
- Hepatotoxicity (acute) [5]: 3
- Hepatotoxicity (cytolytic) [6]: 1
- Hepatotoxicity (choleostasis) [7]: 0
- Hepatotoxicity (severe hepatitis) [8]: 0
- Hepatotoxicity (chronic liver disease) [9]: 0
- Hepatotoxicity (cirrhosis) [10]: 0
- Hepatotoxicity (granulomatous hepatitis) [11]: 0
- Hepatotoxicity (association with vascular disease) [12]: 0
- Hepatotoxicity (steatosis) [13]: 0
- Hepatotoxicity (malignant tumour) [14]: 0
- Hepatotoxicity (benign tumour) [15]: 0

Molecule: CC(=O)[C@H]1CC[C@H]2[C@@H]3CC[C@H]4C[C@H](O)CC[C@]4(C)[C@H]3C(=O)C[C@]12C.C[C@]12CC[C@@H](O)C[C@@H]1CC[C@H]1[C@@H]3CC[C@H](C(=O)CO)[C@@]3(C)CC(=O)[C@@H]12
- Hepatotoxicity (moderate) [1]: 15%
- Hepatotoxicity (acute) [2]: 0%
- Hepatotoxicity (time to onset) [3]: 3 days - 5 days
- Hepatotoxicity (moderate) [4]: 1
- Hepatotoxicity (acute) [5]: 0
- Hepatotoxicity (cytolytic) [6]: 0
- Hepatotoxicity (choleostasis) [7]: 0
- Hepatotoxicity (severe hepatitis) [8]: 0
- Hepatotoxicity (chronic liver disease) [9]: 0
- Hepatotoxicity (cirrhosis) [10]: 0
- Hepatotoxicity (granulomatous hepatitis) [11]: 0
- Hepatotoxicity (association with vascular disease) [12]: 0
- Hepatotoxicity (steatosis) [13]: 0
- Hepatotoxicity (malignant tumour) [14]: 0
- Hepatotoxicity (benign tumour) [15]: 0

Molecule: O=C1CN=C(c2ccccc2)c2c(sc3c2CCCC3)N1 [BENTAZEPAM]
- Hepatotoxicity (moderate) [1]: 0%
- Hepatotoxicity (acute) [2]: 0%
- Hepatotoxicity (time to onset) [3]: 1 month - 6 months
- Hepatotoxicity (moderate) [4]: 1
- Hepatotoxicity (acute) [5]: 2
- Hepatotoxicity (cytolytic) [6]: 2
- Hepatotoxicity (choleostasis) [7]: 0
- Hepatotoxicity (severe hepatitis) [8]: 0
- Hepatotoxicity (chronic liver disease) [9]: 3
- Hepatotoxicity (cirrhosis) [10]: 1
- Hepatotoxicity (granulomatous hepatitis) [11]: 0
- Hepatotoxicity (association with vascular disease) [12]: 0
- Hepatotoxicity (steatosis) [13]: 0
- Hepatotoxicity (malignant tumour) [14]: 0
- Hepatotoxicity (benign tumour) [15]: 0

Molecule: COc1cc(NS(=O)(=O)c2ccc(N)cc2)nc(OC)n1 [SULFADIMETHOXINE]
- Hepatotoxicity (moderate) [1]: 0%
- Hepatotoxicity (acute) [2]: 0%
- Hepatotoxicity (time to onset) [3]: 1 month - 2 months
- Hepatotoxicity (moderate) [4]: 0
- Hepatotoxicity (acute) [5]: 2
- Hepatotoxicity (cytolytic) [6]: 1
- Hepatotoxicity (choleostasis) [7]: 0
- Hepatotoxicity (severe hepatitis) [8]: 0
- Hepatotoxicity (chronic liver disease) [9]: 0
- Hepatotoxicity (cirrhosis) [10]: 0
- Hepatotoxicity (granulomatous hepatitis) [11]: 1
- Hepatotoxicity (association with vascular disease) [12]: 0
- Hepatotoxicity (steatosis) [13]: 0
- Hepatotoxicity (malignant tumour) [14]: 0
- Hepatotoxicity (benign tumour) [15]: 0

Molecule: COc1c(C)c2c(c(O)c1C/C=C(\C)CCC(=O)OCCN1CCOCC1)C(=O)OC2 [MYCOPHENOLATE MOFETIL]
- Hepatotoxicity (moderate) [1]: 33.3%
- Hepatotoxicity (acute) [2]: 0%
- Hepatotoxicity (time to onset) [3]: 2 weeks
- Hepatotoxicity (moderate) [4]: 3
- Hepatotoxicity (acute) [5]: 1
- Hepatotoxicity (cytolytic) [6]: 1
- Hepatotoxicity (choleostasis) [7]: 0
- Hepatotoxicity (severe hepatitis) [8]: 0
- Hepatotoxicity (chronic liver disease) [9]: 0
- Hepatotoxicity (cirrhosis) [10]: 0
- Hepatotoxicity (granulomatous hepatitis) [11]: 0
- Hepatotoxicity (association with vascular disease) [12]: 0
- Hepatotoxicity (steatosis) [13]: 0
- Hepatotoxicity (malignant tumour) [14]: 0
- Hepatotoxicity (benign tumour) [15]: 0

Molecule: CCOC(Nc1ccc(C(=O)O)cc1)C(=O)c1ccc(-c2ccccc2)cc1 (stereo not given) [XENAZOIC ACID]
- Hepatotoxicity (moderate) [1]: 0%
- Hepatotoxicity (acute) [2]: 0%
- Hepatotoxicity (time to onset) [3]: 1 week - 2 weeks
- Hepatotoxicity (moderate) [4]: 0
- Hepatotoxicity (acute) [5]: 2
- Hepatotoxicity (cytolytic) [6]: 0
- Hepatotoxicity (choleostasis) [7]: 0
- Hepatotoxicity (severe hepatitis) [8]: 0
- Hepatotoxicity (chronic liver disease) [9]: 0
- Hepatotoxicity (cirrhosis) [10]: 0
- Hepatotoxicity (granulomatous hepatitis) [11]: 0
- Hepatotoxicity (association with vascular disease) [12]: 0
- Hepatotoxicity (steatosis) [13]: 0
- Hepatotoxicity (malignant tumour) [14]: 0
- Hepatotoxicity (benign tumour) [15]: 0

Molecule: CCOC(=O)c1cncn1[C@H](C)c1ccccc1 [ETOMIDATE]
- Hepatotoxicity (moderate) ([1]; Liver): 5%
- Hepatotoxicity (acute) ([2]; Liver): 0%
- Hepatotoxicity (time to onset) [3]: 3 days - 5 days
- Hepatotoxicity (moderate) [4]: 1
- Hepatotoxicity (acute) [5]: 0
- Hepatotoxicity (cytolytic) [6]: 0
- Hepatotoxicity (choleostasis) [7]: 0
- Hepatotoxicity (severe hepatitis) ([8]; Liver): 0
- Hepatotoxicity (chronic liver disease) [9]: 0
- Hepatotoxicity (cirrhosis) [10]: 0
- Hepatotoxicity (granulomatous hepatitis) [11]: 0
- Hepatotoxicity (association with vascular disease) [12]: 0
- Hepatotoxicity (steatosis) [13]: 0
- Hepatotoxicity (malignant tumour) [14]: 0
- Hepatotoxicity (benign tumour) [15]: 0

Molecule: [AsH3] [ARSENIC]
- Hepatotoxicity (moderate) ([1]; Liver): 35.7%
- Hepatotoxicity (acute) ([2]; Liver): 47.6%
- Hepatotoxicity (time to onset) [3]: 46 years
- Hepatotoxicity (moderate) [4]: 4
- Hepatotoxicity (acute) [5]: 1
- Hepatotoxicity (cytolytic) ([6]; Liver): 0
- Hepatotoxicity (choleostasis) ([7]; Liver): 0
- Hepatotoxicity (severe hepatitis) ([8]; Liver): 0
- Hepatotoxicity (chronic liver disease) [9]: 1
- Hepatotoxicity (cirrhosis) [10]: 1
- Hepatotoxicity (granulomatous hepatitis) ([11]; Liver): 0
- Hepatotoxicity (association with vascular disease) [12]: 0
- Hepatotoxicity (steatosis) [13]: 0
- Hepatotoxicity (malignant tumour) [14]: 1
- Hepatotoxicity (benign tumour) [15]: 0

Molecule: CC(C)NCC(O)c1ccc(NS(C)(=O)=O)cc1 (stereo not given) [SOTALOL]
- Hepatotoxicity (moderate) [1]: 0%
- Hepatotoxicity (acute) [2]: 0%
- Hepatotoxicity (time to onset) [3]: 10 months
- Hepatotoxicity (moderate) [4]: 0
- Hepatotoxicity (acute) [5]: 1
- Hepatotoxicity (cytolytic) [6]: 1
- Hepatotoxicity (choleostasis) [7]: 0
- Hepatotoxicity (severe hepatitis) [8]: 0
- Hepatotoxicity (chronic liver disease) [9]: 1
- Hepatotoxicity (cirrhosis) [10]: 0
- Hepatotoxicity (granulomatous hepatitis) [11]: 0
- Hepatotoxicity (association with vascular disease) [12]: 0
- Hepatotoxicity (steatosis) [13]: 0
- Hepatotoxicity (malignant tumour) [14]: 0
- Hepatotoxicity (benign tumour) [15]: 0

Molecule: CC(=O)N(O)CCCCCNC(=O)CCC(=O)N(O)CCCCCNC(=O)CCC(=O)N(O)CCCCCN [DEFEROXAMINE]
- Hepatotoxicity (moderate) [1]: 28%
- Hepatotoxicity (acute) [2]: 0%
- Hepatotoxicity (time to onset) [3]: 6 weeks
- Hepatotoxicity (moderate) [4]: 1
- Hepatotoxicity (acute) [5]: 1
- Hepatotoxicity (cytolytic) [6]: 1
- Hepatotoxicity (choleostasis) [7]: 0
- Hepatotoxicity (severe hepatitis) [8]: 1
- Hepatotoxicity (chronic liver disease) [9]: 0
- Hepatotoxicity (cirrhosis) [10]: 0
- Hepatotoxicity (granulomatous hepatitis) [11]: 0
- Hepatotoxicity (association with vascular disease) [12]: 0
- Hepatotoxicity (steatosis) [13]: 0
- Hepatotoxicity (malignant tumour) [14]: 0
- Hepatotoxicity (benign tumour) [15]: 0
